Experiments:
Format in all cases: in vivo
[1] = test system: ragweed (common ragweed, Ambrosia elatior); experiment: Test A postemergence; settings: Ambrosia artemisiifolia, post-emergence, 240 h
Outline: (§1)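 Ratings of 0 (no effect) to 100 (complete control) come from visual comparison with untreated controls roughly 10 d after treatment. Test chemicals, formulated in a non-phytotoxic solvent mixture with surfactant, were applied either as a preemergence directed soil spray on seeded soil or postemergence to one- to two-leaf plants 2 to 10 cm tall.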

[2] = test system: Galium (catchweed bedstraw, Galium aparine); experiment: Test A postemergence; settings: Galium, post-emergence, 240 h
Outline: as §1

corn (Zea mays) = experiment: Test A postemergence; settings: Zea mays, post-emergence, 240 h
Outline: as §1

[3] = test system: ryegrass, Italian (Italian ryegrass, Lolium multiflorum); experiment: Test A postemergence; settings: Lolium multiflorum, post-emergence, 240 h
Outline: as §1

Kochia (Kochia scoparia) [4] = experiment: Test A postemergence; settings: Bassia scoparia, post-emergence, 240 h
Outline: as §1

[5] = test system: pigweed (Amaranthus retroflexus); experiment: Test A postemergence; settings: Amaranthus retroflexus, post-emergence, 240 h
Outline: as §1

[6] = test system: giant foxtail (Setaria faberii); experiment: Test A postemergence; settings: Setaria faberi, post-emergence, 240 h
Outline: as §1

[7] = test system: barnyardgrass (Echinochloa crus-galli); experiment: Test A postemergence; settings: Echinochloa crus-galli, post-emergence, 240 h
Outline: as §1

[8] = test system: wheat (Triticum aestivum); experiment: Test A postemergence; settings: Triticum aestivum, post-emergence, 240 h
Outline: as §1

[9] = test system: blackgrass (Alopecurus myosuroides); experiment: Test A postemergence; settings: Alopecurus myosuroides, post-emergence, 240 h
Outline: as §1

[10] = test system: ragweed (common ragweed, Ambrosia elatior); experiment: Test A preemergence; settings: Ambrosia artemisiifolia, pre-emergence, 240 h, read-out: Plant response rating, Ragweed
Outline: as §1

[11] = test system: ryegrass, Italian (Italian ryegrass, Lolium multiflorum); experiment: Test A preemergence; settings: Lolium multiflorum, pre-emergence, 240 h, read-out: Plant response rating, Ryegrass, Italian
Outline: as §1

Kochia (Kochia scoparia) [12] = experiment: Test A preemergence; settings: Bassia scoparia, pre-emergence, 240 h, read-out: Plant response rating, Kochia
Outline: as §1

[13] = test system: pigweed (Amaranthus retroflexus); experiment: Test A preemergence; settings: Amaranthus retroflexus, pre-emergence, 240 h, read-out: Plant response rating, Pigweed
[14] = test system: giant foxtail (Setaria faberii); experiment: Test A preemergence; settings: Setaria faberi, pre-emergence, 240 h, read-out: Plant response rating, Foxtail, Giant
Outline: as §1

[15] = test system: barnyardgrass (Echinochloa crus-galli); experiment: Test A preemergence; settings: Echinochloa crus-galli, pre-emergence, 240 h, read-out: Plant response rating, Barnyardgrass
Outline: as §1

[16] = 125 g ai/ha, preemergence, visual rating after approx. 10 d, 0 to 100 scale where 0 is no effect and 100 is complete control
[17] = Preemergence, 31 g ai/ha, 0 to 100 scale (0 no effect, 100 complete control)

O=C(Nc1cccc(F)c1F)[C@H]1C(=O)N(O)CC[C@@H]1c1ccc(F)cc1 [Compound 805]
0%: pest or weed control at 125 g/ha ([1]; 125 g ai/ha, postemergence, visual injury rating after approximately 10 d, read-out: Ragweed plant response rating (0 to 100 scale, 0 no effect, 100 complete control)) | pest or weed control at 31 g/ha ([1]; Postemergence, 31 g ai/ha, visual injury after approx. 10 d, 0 to 100 scale, 0 no effect, 100 complete control, read-out: Plant response rating, Ragweed) | pest or weed control at 125 g/ha ([2]; 125 g ai/ha, postemergence, visual injury rating after approximately 10 d, read-out: Galium plant response rating (0 to 100 scale, 0 no effect, 100 complete control)) | pest or weed control at 31 g/ha ([2]; Postemergence, 31 g ai/ha, visual injury after approx. 10 d, 0 to 100 scale, 0 no effect, 100 complete control, read-out: Plant response rating, Galium) | plant injury at 125 g/ha (corn (Zea mays); 125 g ai/ha, postemergence, visual injury rating after approximately 10 d, read-out: Corn plant response rating (0 to 100 scale, 0 no effect, 100 complete control)) | Corn plant response rating (crop injury, 0 = no effect, 100 = complete kill) at 31 g/ha (corn (Zea mays); Postemergence, 31 g ai/ha, visual injury after approx. 10 d, 0 to 100 scale, 0 no effect, 100 complete control) | pest or weed control at 125 g/ha ([3]; 125 g ai/ha, postemergence, visual injury rating after approximately 10 d, read-out: Ryegrass, Italian plant response rating (0 to 100 scale, 0 no effect, 100 complete control)) | pest or weed control at 31 g/ha ([3]; Postemergence, 31 g ai/ha, visual injury after approx. 10 d, 0 to 100 scale, 0 no effect, 100 complete control, read-out: Plant response rating, Ryegrass, Italian) | pest or weed control at 125 g/ha (Kochia (Kochia scoparia) [4]; 125 g ai/ha, postemergence, visual injury rating after approximately 10 d, read-out: Kochia plant response rating (0 to 100 scale, 0 no effect, 100 complete control)) | pest or weed control at 31 g/ha (Kochia (Kochia scoparia) [4]; Postemergence, 31 g ai/ha, visual injury after approx. 10 d, 0 to 100 scale, 0 no effect, 100 complete control, read-out: Plant response rating, Kochia) | pest or weed control at 125 g/ha ([5]; 125 g ai/ha, postemergence, visual injury rating after approximately 10 d, read-out: Pigweed plant response rating (0 to 100 scale, 0 no effect, 100 complete control)) | pest or weed control at 31 g/ha ([5]; Postemergence, 31 g ai/ha, visual injury after approx. 10 d, 0 to 100 scale, 0 no effect, 100 complete control, read-out: Plant response rating, Pigweed) | pest or weed control at 125 g/ha ([6]; 125 g ai/ha, postemergence, visual injury rating after approximately 10 d, read-out: Foxtail, Giant plant response rating (0 to 100 scale, 0 no effect, 100 complete control)) | pest or weed control at 31 g/ha ([6]; Postemergence, 31 g ai/ha, visual injury after approx. 10 d, 0 to 100 scale, 0 no effect, 100 complete control, read-out: Plant response rating, Foxtail, Giant) | pest or weed control at 125 g/ha ([7]; 125 g ai/ha, postemergence, visual injury rating after approximately 10 d, read-out: Barnyardgrass plant response rating (0 to 100 scale, 0 no effect, 100 complete control)) | pest or weed control at 31 g/ha ([7]; Postemergence, 31 g ai/ha, visual injury after approx. 10 d, 0 to 100 scale, 0 no effect, 100 complete control, read-out: Plant response rating, Barnyardgrass) | plant injury at 125 g/ha ([8]; 125 g ai/ha, postemergence, visual injury rating after approximately 10 d, read-out: Wheat plant response rating (0 to 100 scale, 0 no effect, 100 complete control)) | plant injury at 31 g/ha ([8]; Postemergence, 31 g ai/ha, visual injury after approx. 10 d, 0 to 100 scale, 0 no effect, 100 complete control, read-out: Plant response rating, Wheat) | pest or weed control at 125 g/ha ([9]; 125 g ai/ha, postemergence, visual injury rating after approximately 10 d, read-out: Blackgrass plant response rating (0 to 100 scale, 0 no effect, 100 complete control)) | pest or weed control at 31 g/ha ([9]; Postemergence, 31 g ai/ha, visual injury after approx. 10 d, 0 to 100 scale, 0 no effect, 100 complete control, read-out: Plant response rating, Blackgrass) | pest or weed control at 125 g/ha [10, 16] | pest or weed control at 31 g/ha [10, 17] | pest or weed control at 125 g/ha [11, 16] | pest or weed control at 31 g/ha [11, 17] | pest or weed control at 125 g/ha (Kochia (Kochia scoparia) [12]; [16]) | pest or weed control at 31 g/ha (Kochia (Kochia scoparia) [12]; [17]) | pest or weed control at 125 g/ha [13, 16] | pest or weed control at 31 g/ha [13, 17] | pest or weed control at 125 g/ha [14, 16] | pest or weed control at 31 g/ha [14, 17] | pest or weed control at 125 g/ha [15, 16] | pest or weed control at 31 g/ha [15, 17]
